Here are results for 8 molecules from US11337909B2, “Methods for modulating pigmentation by angiotensin-converting enzyme 2 modulation” (Max-Delbrück-Centrum für Molekulare Medizin in der …, priority 2017, dated 2022).

For test [1], the system named is ACE2. In words: ACE2 expression in B16F10 cells by real-time RT-PCR. It counts as cell-based, mouse. Conditions: 10 ng/μl DIZE, 48 hours, FIG. 8. Here is the method:
B16F10 mouse melanoma cells were incubated with 10 ng/μl diminazene aceturate (DIZE, ACE2 activator) for 48 hours and the expression of ACE2 was quantified by real-time RT-PCR; *p<0.05.

For test [2], the system named is tyrosinase (TYR). In words: Tyrosinase (TYR) expression in B16F10 cells by real-time RT-PCR. It counts as cell-based, mouse. Conditions: 1 nM aMSH + 10 ng/μl DIZE, 48 hours, FIG. 7; dihydrochloride. How it is done: B16F10 mouse melanoma cells were incubated with 1 nM aMSH, 10 ng/μl diminazene aceturate (DIZE, ACE2 activator) or a combination of both for 48 hours and the expression of the melanin-synthesizing enzyme tyrosinase (TYR) was quantified by real-time RT-PCR; **p<0.01; *p<0.05.
B16F10 mouse melanoma cells were incubated with 1 nM aMSH, 10 ng/μl diminazene aceturate (DIZE, ACE2 activator) or a combination of both for 48 hours and the expression of the melanin-synthesizing enzyme tyrosinase (TYR) was quantified by real-time RT-PCR.

In test [3] the target is T1, ACE2 (Homo sapiens, UniProt Q9BYF1). Conditions: in vitro and in vivo; Shenoy et al; cited from earlier work.
Target sequence in this assay (Q9BYF1 18-805, species assumed): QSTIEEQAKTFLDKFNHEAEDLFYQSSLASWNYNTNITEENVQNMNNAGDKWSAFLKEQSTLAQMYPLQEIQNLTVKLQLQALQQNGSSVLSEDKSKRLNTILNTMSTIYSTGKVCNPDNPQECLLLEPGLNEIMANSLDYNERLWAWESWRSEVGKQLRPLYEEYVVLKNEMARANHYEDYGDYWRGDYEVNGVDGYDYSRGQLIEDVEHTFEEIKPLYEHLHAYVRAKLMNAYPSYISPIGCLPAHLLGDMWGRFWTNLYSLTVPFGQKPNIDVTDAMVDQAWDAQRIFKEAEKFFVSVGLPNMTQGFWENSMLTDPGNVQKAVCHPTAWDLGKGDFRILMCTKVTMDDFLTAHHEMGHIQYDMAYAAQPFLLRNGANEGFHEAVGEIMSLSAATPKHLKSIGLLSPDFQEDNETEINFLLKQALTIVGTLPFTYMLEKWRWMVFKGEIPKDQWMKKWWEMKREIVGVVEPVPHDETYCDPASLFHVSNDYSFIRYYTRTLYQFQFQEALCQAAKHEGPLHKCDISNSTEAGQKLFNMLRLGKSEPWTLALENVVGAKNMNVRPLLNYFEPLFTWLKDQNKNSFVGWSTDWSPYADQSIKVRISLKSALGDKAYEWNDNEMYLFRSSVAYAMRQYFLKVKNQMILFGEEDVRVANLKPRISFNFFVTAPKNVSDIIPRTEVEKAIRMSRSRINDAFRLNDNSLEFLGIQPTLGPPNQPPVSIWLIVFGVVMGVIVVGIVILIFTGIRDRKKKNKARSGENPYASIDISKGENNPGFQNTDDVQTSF
Test [4] deals with T1, ACE2. Conditions: ACE2 inhibitor; cited from earlier work.
Target sequence in this assay (Q9BYF1 18-805, species assumed): as above
The test system of test [5] is Tyrosinase. Nature of the test: Tyrosinase mRNA expression in human abdominal skin biopsies. It counts as cell-based. Conditions: for tyrosinase mRNA expression: FIG. 4. How it is done: FIG. 4: ACE2 limits the efficiency of αMSH1-13 in human skin; Tyrosinase expression. Tyrosinase (melanin synthesizing enzyme) mRNA expression was measured in human abdominal skin biopsies after treatment with vehicle, 10 nM αMSH1-13, 10 nM αMSH1-13+100 nM of the ACE2-Inhibitor MLN4760, or 100 nM MLN4760 alone.
(§1) Biopsies were treated with vehicle, 10 nM αMSH1-13, 10 nM αMSH1-13+100 nM of the ACE2-Inhibitor MLN4760, or 100 nM MLN4760 alone.

In test [6] the test system is B16F10 mouse melanoma cells. Nature of the test: Cell culture assay for melanogenesis in B16F10 melanoma cells. It counts as cell-based. An excerpt: FIG. 2: Melanogenesis in B16F10 melanoma cells stimulated with α-MSH1-13 and α-MSH1-12. *** p<0.001 compared to control without α-MSH, +++, +p<0.001, p<0.05 α-MSH1-12 compared to the same concentration of α-MSH1-13.
In wild-type mice, the inventors further confirmed previous studies in humans (Ham-ming et al., 2004, Grzegrzolka et al., 2013) showing that ACE2 is expressed in the skin.

Test [7] has as its system human abdominal skin biopsies. In words: Fontana-Masson melanin staining in human abdominal skin biopsies. Conditions: FIG. 5. It counts as cell-based. Here is the method:
FIG. 5: ACE2 limits the efficiency of αMSH1-13 in human skin; Fontana-Masson staining in human abdominal skin biopsies. Melanin was stained black by Fontana-Masson staining in human abdominal skin biopsies after treatment with vehicle, 10 nM αMSH1-13, or 10 nM αMSH1-13+100 nM of the ACE2-Inhibitor MLN476.
as §1

Test [8] concerns the target T1, ACE2. Conditions: Hernandez Prada et al; cited from earlier work.
Target sequence in this assay (Q9BYF1 18-805, species assumed): as above
Test [9] deals with T1, ACE2. Also on record: purchased Enzo life sciences, Plymouth meeting, PA. Conditions: Kulemina and Ostrov; cited from earlier work.
Target sequence in this assay (Q9BYF1 18-805): as the sequence (Q9BYF1 18-805, species assumed) above
The target in test [10] is T1, ACE2. Conditions: Mores et al; read-out: Ki value toward ACE2; cited from earlier work.
Target sequence in this assay (Q9BYF1 18-805, species assumed): as above

Entries after “also recorded” stand apart in the source; their conditions may differ. Where a name gives a salt, the structure may show the parent alone.

With `N=C(N)c1ccc(/N=N/Nc2ccc(C(=N)N)cc2)cc1` [DIZE, 4-[2-(4-carbamimidoylphenyl)iminohydrazinyl]benzenecarboximidamide dihydrochloride], the ACE2 expression entry in test [1] is “stimulates ACE2 expression”. The “tyrosinase (TYR) expression, effect on αMSH stimulation” value in [2] is reported as “inhibits the stimulating effect of aMSH; also recorded: inhibits the stimulating effect of αMSH”. In addition, the “enhancement of the enzymatic activity of ACE2” value in test [3] was “enhance the enzymatic activity of ACE2”.
In general, IC50 refers to the concentration that gives 50% inhibition. As for `CC(C)C[C@H](N[C@@H](Cc1cncn1Cc1cc(Cl)cc(Cl)c1)C(=O)O)C(=O)O` [MLN-4760, (2S)-2-[[(1S)-1-carboxy-2-[3-[(3,5-dichlorophenyl)methyl]imidazol-4-yl]ethyl]amino]-4-methylpentanoic acid], in test [4], the IC50 was 0.5 nM. Besides, the “tyrosinase mRNA expression, effect on αMSH1-13 stimulation” value in test [5] (10 nM αMSH1-13 + 100 nM MLN4760, FIG. 4) is on record as “This effect is increased by ACE2 inhibition”. Moreover, in test [5] (100 nM MLN4760 alone), the “tyrosinase mRNA expression” value is given as “ACE2 inhibition alone already stimulates tyrosinase expression”. Moreover, in test [6] (B16F10 cells, α-MSH1-13 + human recombinant ACE2, FIG. 3), the “effect on the ACE2-mediated inhibition of α-MSH1-13 melanogenic effect” value is on record as “inhibits the effect of ACE2”. Also, the “melanin levels (Fontana-Masson staining), effect on αMSH1-13 increase” value in test [7] (10 nM αMSH1-13 + 100 nM ACE2 inhibitor) was “This effect is further increased by ACE2 inhibition”.
For the molecule `Cc1ccc(S(=O)(=O)Oc2ccc3oc4c(CO)ccc(NCCN(C)C)c4c(=O)c3c2)cc1` [XNT, [8-(2-dimethylaminoethylamino)-5-(hydroxymethyl)-9-oxoxanthen-2-yl]4-methyl-benzenesulfonate], the “enhancement of ACE2 activity” value in test [8] is listed as “enhance ACE2 activity in a dose-dependent manner”. Further, the “increase of the velocity of the enzyme (rate of catalysis)” value in test [9] is reported as “approximately twofold”.
A word on the Ki: it is a dissociation constant, usually derived from enzyme kinetics or from competition with a known ligand. Consider `CC(=O)NC(Cc1c[nH]cn1)C(=O)N1CCCC1P(=O)(O)CC(Cc1cc(-c2ccccc2)no1)C(=O)O` (stereo not shown) [compound 41], for which the Ki in test [10] was 0.4 nM.
Consider `O=C1OC2(c3ccc(O)cc3Oc3cc(O)ccc32)c2cccc3cccc1c23` [resorcinolnaphthalein], for which the “enhancement of ACE2 activity” value in test [8] is reported as “enhance ACE2 activity in a dose-dependent manner”.
On to “human recombinant ACE2: human recombinant angiotensin-converting enzyme 2”, for which the “effect of added ACE2 on melanogenic activity of α-MSH1-13” value in test [6] (B16F10 cells, with α-MSH1-13, FIG. 3 upper panel) was “Inhibition of the melanogenic effect of α-MSH1-13; also recorded: reduces its melanogenic activity”.
Turning to “α-MSH1-12: expected ACE2 digestion product of α-MSH1-13 (SYSMEHFRWGKP)”, in test [6] (B16F10 mouse melanoma cells, FIG. 2), the “melanogenic activity relative to α-MSH1-13” value is “at least 100 times less active”.
Turning to “α-MSH1-13: α-melanocyte stimulating hormone, 13-amino-acid peptide hormone”, in test [5] (10 nM αMSH1-13 vs vehicle), the “tyrosinase mRNA expression” value was “stimulates tyrosinase expression”. Moreover, the “melanin levels (Fontana-Masson staining)” value in test [7] (10 nM αMSH1-13 vs vehicle) is given as “increases melanin levels”.
